# System: NLRP3
# Assay: IL-1β secretion assay in PMA-differentiated, LPS/nigericin-stimulated THP-1 cells (ELISA)
# Type: cell-based
# Details: Homo sapiens, 25 ng/mL LPS, nigericin
# Procedure: Compounds as provided herein were tested in the following assay. Cell culture medium employed contained RPMI 1640 medium (89%), FBS (10%), Pen/Strep (1%), and 2-mercaptoethanol (0.05 mM). Freezing medium was made up of 90% FBS and 10% DMSO. THP-1 cells were removed from the liquid nitrogen and placed into a 37° C. water bath to thaw, until signs of ice dissipated. The cells were then added to 9 mL of warm cell culture medium and centrifuged for 5 minutes at 1000 rpm. The supernatant was discarded, and the cells were resuspended in new cell culture medium. THP-1 cells were then split and cultured in the cell culture medium, being passaged every 2-3 days with the cell density will be maintained between 5×10^5 and 1.5×10^6 viable cells/mL.
# PMA was dissolved in DMSO to make a stock solution at 5 mg/ml and stored in 10 μl aliquots at −20° C. for single use. PMA is added to normal growth medium. LPS was diluted with 1 mL of water solution to provide a 1 mg/mL stock solution and stored in 15 μl aliquots at −20° C. for single use. Nigericin is diluted in ice cold 100% ethanol to 5 mg/ml (6.7 mM) and stored in 75 μL aliquots at −20° C. for single use. Serum-free media contains RPMI 1640 medium (99%), Pen/Strep (1%), and 2-mercaptoethanol (0.05 mM). The two control conditions used to qualify and normalize test compound dose-response curves were as follows: High Control=25 ng/mL LPS, 5 μM Nigericin, 0.5% DMSO, Low Control=25 ng/ml, LPS, 0.5% DMSO.
# THP-1 cells were diluted to provide a suspension at a concentration of 1.0×10^6 cells/mL with the total volume of suspension required to enable the desired number of assay plates. The growth media was supplemented with PMA (5 ng/mL final concentration) and the cells were incubated at 37° C. under a humidified atmosphere of 5% CO2 for 40 h.
# All media was carefully aspirated from each culture flask. The cells were washed carefully with 1× DPBS. The cells were then briefly digested with trypsin LE for 5 minutes at 23° C. and immediately resuspended in cell growth media. After resuspension, the cells were centrifuged at 1000 rpm for 3 minutes and the supernatant was discarded. The cells were resuspended in DPBS and once again centrifuged at 1000 rpm for 5 minutes. The supernatant was discarded and the cell pellet was resuspended in serum-free media supplemented with LPS (25 ng/mL final concentration) to enable the distribution of 30K THP-1 cells within 45 μL of media into each well of 384-well PDL-coated plates. The 384-well plates were then incubated at 37° C. under a humidified atmosphere of 5% CO2 for 2 h. Following this period, test compounds were dispensed by Tecan across the desired concentration range with all wells normalized to a final 0.5% DMSO concentration. The plates were then then incubated at 37° C. under a humidified atmosphere of 5% CO2 for 1 h. Following this period, 5 μL of the 5 mg/mL nigericin stock solution was added to each of the appropriate wells and plates were centrifuged at 1000 rpm for 30 seconds. The plates were the immediately reintroduced to the incubator at 37° C. under a humidified atmosphere of 5% CO2 for 2 h. After this time, 35 μL/well of supernatant was collected and transferred into v-bottom plate and centrifuged at 1000 rpm for 1 minute. These supernatant aliquots were analyzed using an IL-Iβ detection kit as described below. If needed, the test samples could be snap frozen and stored at −80° C. until analyzed.
# To prepare each ELISA plate, capture antibody (mAb Mt175) was diluted with PBS to a final concentration of 2 μg/mL and then 20 μL of this solution was added to each well of the ELISA plate. Each plate was allowed to incubate overnight at 4° C. The next day, the capture antibody solution was removed and discarded. Each ELISA plate was washed 4 times with PBST followed by the addition of 25 uL/well of blocking buffer (Licor-927-40010) supplemented with 0.1% Tween 20. Each ELISA plate was then allowed to incubate for 1 hour at 23° C. […]
SMILES,IC50 [nM],IC50 (class symbol) [nM]
"O=C(Cn1nc(C(F)F)n2c(cc3sccc32)c1=O)Nc1ncc(F)cn1 [Example 1, 2-(5-(difluoromethyl)-8-oxothieno[2′,3′:4,5]pyrrolo[1,2-d][1,2,4]triazin-7(8H)-yl)-N-(5-fluoropyrimidin-2-yl)acetamide]",162,< 10000
"O=C(Cn1nc(C(F)F)n2c(cc3sccc32)c1=O)Nc1ncccn1 [Example 2, 2-(5-(difluoromethyl)-8-oxothieno[2′,3′:4,5]pyrrolo[1,2-d][1,2,4]triazin-7(8H)-yl)-N-(pyrimidin-2-yl)acetamide]",341,< 10000
"CC1(O)CC(NC(=O)Cn2nc(C(F)F)n3c(cc4sccc43)c2=O)C1 (stereo not drawn) [Example 3, 2-(5-(difluoromethyl)-8-oxothieno[2′,3′:4,5]pyrrolo[1,2-d][1,2,4]triazin-7(8H)-yl)-N-(3-cis-hydroxy-3-methylcyclobutyl)acetamide]",101,< 10000
"N#Cc1cnc(NC(=O)Cn2nc(C(F)F)n3c(cc4sccc43)c2=O)c(F)c1 [Example 4, N-(5-cyano-3-fluoropyridin-2-yl)-2-[12-(difluoromethyl)-9-oxo-5-thia-1,10,11-triazatricyclo[6.4.0.02,6]dodeca-2(6),3,7,11-tetraen-10-yl]acetamide]",252,< 10000
"O=C(Cn1nc(CF)n2c(cc3sccc32)c1=O)Nc1ncc(F)cn1 [Example 5, 2-(5-(fluoromethyl)-8-oxothieno[2′,3′:4,5]pyrrolo [1,2-d][1,2,4]triazin-7(8H)-yl)-N-(5-fluoropyrimidin-2-yl)acetamide]",94,< 10000
"O=C(Cn1nc(C(F)F)n2c(cc3scnc32)c1=O)Nc1ncc(F)cn1 [Example 6, 2-(5-(difluoromethyl)-8-oxothiazolo[5′,4′:4,5]pyrrolo[1,2-d][1,2,4]triazin-7(8H)-yl)-N-(5-fluoropyrimidin-2-yl)acetamide]",149,< 10000

# From patent US20240391932A1, “COMPOUNDS, COMPOSITIONS AND METHODS” (Nico Therapeutics, Inc., priority 2021, published 2024)
